Experimental data as given in ChEMBL document CHEMBL1132855, “Modeling directed design and biological evaluation of quinazolinones as non-peptidic growth hormone secretagogues” (Bioorg Med Chem Lett, 2000).

Species on record: Rattus norvegicus
Assay: The effective concentration against rat pituitary cell GH release assay
Format: functional
Conditions: Pituitary gland cell

Row | IC50 [µM] | Compound
1 | 0.63 | NCCCCCCNC(=O)Cn1c(CCc2ccccc2)nc2ccc(-c3ccccc3)cc2c1=O

What follows are molecules tested against Growth hormone secretagogue receptor type 1 (Homo sapiens, UniProt Q92847) (assay: Binding affinity for human growth hormone GH secretagogue (hGHsr) receptor). Conditions: not given.
Sequence of Growth hormone secretagogue receptor type 1 (Q92847 whole entry): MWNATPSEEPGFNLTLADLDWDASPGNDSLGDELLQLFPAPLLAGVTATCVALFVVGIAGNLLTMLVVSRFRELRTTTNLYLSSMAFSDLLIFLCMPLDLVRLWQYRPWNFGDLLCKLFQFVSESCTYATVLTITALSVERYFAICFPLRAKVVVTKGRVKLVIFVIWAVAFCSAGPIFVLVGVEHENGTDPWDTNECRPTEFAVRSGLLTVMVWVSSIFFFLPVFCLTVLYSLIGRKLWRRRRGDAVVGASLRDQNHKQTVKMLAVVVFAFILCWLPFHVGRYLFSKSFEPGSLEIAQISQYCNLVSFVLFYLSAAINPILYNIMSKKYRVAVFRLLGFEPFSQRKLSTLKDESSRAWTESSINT

Row | IC50 [µM] | Compound
2 | 1.4 | NCCCCCNC(=O)Cn1c(-c2ccc3ccccc3c2)nc2ccc(Br)cc2c1=O
3 | 0.96 | NCCCCCCNC(=O)Cn1c(-c2ccc3ccccc3c2)nc2ccc(Br)cc2c1=O
4 | 0.34 | NCCCCCNC(=O)Cn1c(-c2ccc3ccccc3c2)nc2ccc(-c3ccccc3)cc2c1=O
5 | 0.2 | NCCCCCCNC(=O)Cn1c(-c2ccc3ccccc3c2)nc2ccc(-c3ccccc3)cc2c1=O

The remaining lines, values behind:

Row | Compound | IC50 [µM]
6 | NCCCCCNC(=O)Cn1c(CCc2ccccc2)nc2ccc(-c3ccccc3)cc2c1=O | 0.048
7 | NCCCCCCNC(=O)Cn1c(CCc2ccccc2)nc2ccc(Br)cc2c1=O | 0.067
8 | COC(=O)C(CCCCN)NC(=O)Cn1c(-c2ccc3ccccc3c2)nc2ccc(Cl)cc2c1=O (stereo unspecified) | 3.5
9 | NCCCCCNC(=O)Cn1c(CCc2ccccc2)nc2ccc(Br)cc2c1=O | 0.34
10 | NCCCCCCNC(=O)Cn1c(CCc2ccccc2)nc2ccc(-c3ccccc3)cc2c1=O | 0.016
11 | CN1N=C2CCN(C(=O)[C@@H](COCc3ccccc3)NC(=O)C(C)(C)N)C[C@@]2(Cc2ccccc2)C1=O [CAPROMORELIN] | 3
